Test results published in the NIST ThermoML archive (doi:10.1016/j.tca.2013.07.005).

Legend:
[1] = Molar enthalpy of transition or fusion; conditions: Crystal; DSC
[2] = Crystal; for vapor or sublimation pressure: Transpiration method; for Normal melting temperature: DTA

CC(=O)c1ccc(NC2=NCCC3(CCCCC3)S2)cc1
Conditions	Molar enthalpy of transition or fusion [kcal/mol]	Normal melting temperature [°C]
[1]	7.77	–
[2]	–	163.5

[2]
Conditions	vapor or sublimation pressure [kPa]
373.15 K	4.1e-09
375.15 K	5.3e-09
377.15 K	6.8e-09
379.15 K	8.8e-09
381.15 K	1.13e-08
383.15 K	1.46e-08
385.15 K	1.87e-08
386.15 K	2.15e-08
387.15 K	2.52e-08
388.15 K	2.87e-08
390.15 K	3.44e-08
391.15 K	3.72e-08
392.15 K	4.46e-08
393.15 K	5.03e-08
394.15 K	5.5e-08
396.15 K	7.28e-08
397.15 K	7.97e-08

O=C(NC1=NCCC2(CCCCC2)S1)c1ccccc1 [N-(1-thia-3-azaspiro[5.5]undec-2-en-2-yl)benzamide]
Conditions	Molar enthalpy of transition or fusion [kcal/mol]	Normal melting temperature [°C]
[1]	6.67	–
[2]	–	130.2

[2]
Conditions	vapor or sublimation pressure [kPa]
353.15 K	2.2e-09
354.15 K	2.3e-09
357.15 K	3.1e-09
360.15 K	3.8e-09
363.15 K	4.8e-09
366.15 K	5.8e-09
368.15 K	6.8e-09
371.15 K	8.9e-09
373.15 K	1.06e-08
375.15 K	1.28e-08
377.15 K	1.4e-08
378.15 K	1.51e-08
380.15 K	1.85e-08
381.15 K	2e-08
383.15 K	2.26e-08
386.15 K	2.87e-08

COc1ccc(NC2=NCCC3(CCCCC3)S2)cc1 [N-(4-methoxyphenyl)-1-thia-3-azaspiro[5.5]undec-2-en-2-amine]
Conditions	Molar enthalpy of transition or fusion [kcal/mol]	Normal melting temperature [°C]
[1]	6.52	–
[2]	–	115.4

[2]
Conditions	vapor or sublimation pressure [kPa]
353.15 K	3.4e-09
355.15 K	4.7e-09
358.15 K	6.5e-09
360.15 K	9.5e-09
362.15 K	1.15e-08
365.15 K	1.64e-08
367.15 K	2.17e-08
369.15 K	2.73e-08
371.15 K	3.63e-08
373.15 K	4.28e-08
375.15 K	5.23e-08
377.15 K	6.63e-08
381.15 K	9.73e-08
